The IC50 is the midpoint of a concentration-inhibition curve. A lower IC50 goes with greater potency.

For 25 compounds, IC50 results are on record in US20240158393A1, “PYRIDONE COMPOUNDS AND METHODS OF USE” (Exelixis, Inc., priority 2021, published 2024).

Bounds are passed on as bounds.

In the experiment the target is T1, Human Axl (Homo sapiens, UniProt P30530).
T1 construct: Human AXL (residues 464-885)
T1 sequence (P30530 1-894 Q764R): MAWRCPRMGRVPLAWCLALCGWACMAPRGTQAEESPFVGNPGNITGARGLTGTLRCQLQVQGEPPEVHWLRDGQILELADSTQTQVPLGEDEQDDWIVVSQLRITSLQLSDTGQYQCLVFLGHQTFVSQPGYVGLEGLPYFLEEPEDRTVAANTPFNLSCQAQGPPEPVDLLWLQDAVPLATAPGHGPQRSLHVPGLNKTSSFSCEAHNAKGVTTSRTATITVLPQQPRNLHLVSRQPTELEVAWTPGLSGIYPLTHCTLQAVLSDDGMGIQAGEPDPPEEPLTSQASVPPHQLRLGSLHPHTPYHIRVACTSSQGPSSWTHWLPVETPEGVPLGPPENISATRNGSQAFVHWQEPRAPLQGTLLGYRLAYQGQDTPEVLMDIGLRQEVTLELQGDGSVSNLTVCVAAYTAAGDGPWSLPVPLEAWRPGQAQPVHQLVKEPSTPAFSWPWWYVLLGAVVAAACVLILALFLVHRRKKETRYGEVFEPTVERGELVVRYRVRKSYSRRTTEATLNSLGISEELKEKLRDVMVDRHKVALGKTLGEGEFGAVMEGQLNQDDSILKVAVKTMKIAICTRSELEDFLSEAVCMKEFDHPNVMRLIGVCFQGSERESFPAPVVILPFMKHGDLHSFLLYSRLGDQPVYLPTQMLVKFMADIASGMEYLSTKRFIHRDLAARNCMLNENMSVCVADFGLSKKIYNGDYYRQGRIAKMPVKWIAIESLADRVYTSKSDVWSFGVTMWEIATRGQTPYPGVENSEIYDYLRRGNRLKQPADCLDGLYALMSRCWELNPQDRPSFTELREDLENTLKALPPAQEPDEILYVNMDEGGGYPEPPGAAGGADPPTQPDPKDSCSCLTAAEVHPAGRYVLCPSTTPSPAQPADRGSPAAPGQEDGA
Kind of experiment: Human AXL kinase assay (33P radiometric / HTRF KinEase). To be noted: protocols of Examples A-1 and/or A-2. Format: biochemical.
Take `COCCOc1cc2nccc(Oc3ccc(NC(=O)c4cnc(C)c(/C=C/C5CCCC5)c4O)cc3F)c2nc1OC` [Compound 36, 5-[(E)-2-Cyclopentylethenyl]-N-[3-fluoro-4-[[6-methoxy-7-(2-methoxyethoxy)-1,5-naphthyridin-4-yl]oxy]phenyl]-4-hydroxy-6-methylpyridine-3-carboxamide]: the IC50 is no more than 100 nM.
Compound `COc1cc2nccc(Oc3cc(F)c(NC(=O)c4c(C)nc(C)c(C(C)C)c4O)cc3F)c2nc1OC` [Compound 10, N-[4-[(6,7-Dimethoxy-1,5-naphthyridin-4-yl)oxy]-2,5-difluorophenyl]-4-hydroxy-2,6-dimethyl-5-propan-2-ylpyridine-3-carboxamide] showed an IC50 of no more than 100 nM.
The result for `COc1cc2nccc(Oc3ccc(NC(=O)c4c(C)n(C)c(C)c(C(=O)NC5CC5)c4=O)cc3F)c2nc1OC` [Compound 96, 3-N-Cyclopropyl-5-N-[4-[(6,7-dimethoxy-1,5-naphthyridin-4-yl)oxy]-3-fluorophenyl]-1,2,6-trimethyl-4-oxopyridine-3,5-dicarboxamide] reads greater than 300 nM; that for `C=C(C)n1c(C)cc(C)c(C(=O)Nc2ccc(Oc3ccnc4cc(OC)c(OC)nc34)c(F)c2)c1=O` [Compound 20, N-[4-[(6,7-Dimethoxy-1,5-naphthyridin-4-yl)oxy]-3-fluorophenyl]-4,6-dimethyl-2-oxo-1-prop-1-en-2-ylpyridine-3-carboxamide], no more than 100 nM.
`COc1cc2nccc(Oc3ccc(NC(=O)c4c(C)nc(C)c(C(C)C)c4O)cc3F)c2nc1OC` [Compound 31, N-[4-[(6,7-Dimethoxy-1,5-naphthyridin-4-yl)oxy]-3-fluorophenyl]-4-hydroxy-2,6-dimethyl-5-propan-2-ylpyridine-3-carboxamide]: the IC50 is no more than 100 nM.
`COCCOc1cc2nccc(Oc3ccc(NC(=O)c4cnc(C)c(/C=C/C5CC5)c4O)cc3F)c2nc1OC` [Compound 37, 5-[(E)-2-Cyclopropylethenyl]-N-[3-fluoro-4-[[6-methoxy-7-(2-methoxyethoxy)-1,5-naphthyridin-4-yl]oxy]phenyl]-4-hydroxy-6-methylpyridine-3-carboxamide] had an IC50 of no more than 100 nM.
As to `COCCOc1cc2nccc(Oc3ccc(NC(=O)c4c(C)nc(C)c(C5=CCCC5)c4O)cc3F)c2nc1OC` [Compound 41, 5-(Cyclopenten-1-yl)-N-[3-fluoro-4-[[6-methoxy-7-(2-methoxyethoxy)-1,5-naphthyridin-4-yl]oxy]phenyl]-4-hydroxy-2,6-dimethylpyridine-3-carboxamide], the IC50 is no more than 100 nM.
As for `COc1cc2nccc(Oc3ccc(NC(=O)c4cnc(C)c(/C=C/C(C)(C)C)c4O)cc3F)c2cc1OC` [Compound 30, N-[4-(6,7-Dimethoxyquinolin-4-yl)oxy-3-fluorophenyl]-5-[(E)-3,3-dimethylbut-1-enyl]-4-hydroxy-6-methylpyridine-3-carboxamide], the IC50 is no more than 100 nM.
The value for `C=C(C)n1c(C)cc(C)c(C(=O)Nc2ccc(Oc3ccnc4cc(OC)cnc34)c(F)c2)c1=O` [Compound 21, N-[3-Fluoro-4-[(7-methoxy-1,5-naphthyridin-4-yl)oxy]phenyl]-4,6-dimethyl-2-oxo-1-prop-1-en-2-ylpyridine-3-carboxamide] was greater than 300 nM; that for `COc1cc2nccc(Oc3ccc(NC(=O)c4c5n(cc(C6=CCCCC6)c4=O)CCOC5)cc3)c2nc1OC` [Compound G1-5, 7-(Cyclohexen-1-yl)-N-[4-[(6,7-dimethoxy-1,5-naphthyridin-4-yl)oxy]phenyl]-8-oxo-3,4-dihydro-1H-pyrido[2,1-c][1,4]oxazine-9-carboxamide] was no more than 100 nM; that for `COc1cc2nccc(Oc3ccc(NC(=O)c4c(C)n(C)c(C)c(C(=O)N(C)C)c4=O)cc3F)c2nc1OC` [Compound 95, 5-N-[4-[(6,7-Dimethoxy-1,5-naphthyridin-4-yl)oxy]-3-fluorophenyl]-3-N,3-N,1,2,6-pentamethyl-4-oxopyridine-3,5-dicarboxamide] was 100 to 300 nM.
In the case of `COc1cnc2c(Oc3ccc(NC(=O)c4c(C)nc(C)c(C(N)=O)c4O)cc3F)ccnc2c1` [Compound 91, 3-N-[3-Fluoro-4-[(7-methoxy-1,5-naphthyridin-4-yl)oxy]phenyl]-4-hydroxy-2,6-dimethylpyridine-3,5-dicarboxamide], the IC50 is greater than 300 nM.
Regarding `COc1cc2nccc(Oc3ccc(NC(=O)c4cnc(C)c(C5=CCOCC5)c4O)cc3)c2cc1OC` [Compound 17, 5-(3,6-Dihydro-2H-pyran-4-yl)-N-[4-(6,7-dimethoxyquinolin-4-yl)oxyphenyl]-4-hydroxy-6-methylpyridine-3-carboxamide], the IC50 was no more than 100 nM.
The compound `COc1ccc2nccc(Oc3ccc(NC(=O)c4cnc(C)c(C5=CCOCC5)c4O)cc3F)c2n1` [Compound 1-5, 5-(3,6-Dihydro-2H-pyran-4-yl)-N-[3-fluoro-4-[(6-methoxy-1,5-naphthyridin-4-yl)oxy]phenyl]-4-hydroxy-6-methylpyridine-3-carboxamide] displayed an IC50 of no more than 100 nM.
`COc1cc2nccc(Oc3ccc(NC(=O)c4c5n(c(C)c(C6=CCCCC6)c4=O)CCOC5)cc3)c2nc1OC` [Compound 100, 7-(Cyclohexen-1-yl)-N-[4-[(6,7-dimethoxy-1,5-naphthyridin-4-yl)oxy]phenyl]-6-methyl-8-oxo-3,4-dihydro-1H-pyrido[2,1-c][1,4]oxazine-9-carboxamide] registered an IC50 of no more than 100 nM.
The value for `COc1cc2nccc(Oc3ccc(NC(=O)c4cn(CCF)c(C)c(C5CCCC5)c4=O)cc3F)c2nc1OC` [Compound 13, 5-Cyclopentyl-N-[4-[(6,7-dimethoxy-1,5-naphthyridin-4-yl)oxy]-3-fluorophenyl]-1-(2-fluoroethyl)-6-methyl-4-oxopyridine-3-carboxamide] was no more than 100 nM.
The value for `COc1cc2nccc(Oc3ccc(NC(=O)c4c(C)n(C)c(C)c(C#N)c4=O)cc3)c2nc1OC` [Compound 82, 5-Cyano-N-[4-[(6,7-dimethoxy-1,5-naphthyridin-4-yl)oxy]phenyl]-1,2,6-trimethyl-4-oxopyridine-3-carboxamide] was greater than 300 nM; that for `COCCOc1cc2nccc(Oc3ccc(NC(=O)c4c(C)n(C)c(C)c(/C=C/C(C)(C)C)c4=O)cc3F)c2nc1OC` [Compound 45, 5-[(E)-3,3-Dimethylbut-1-enyl]-N-[3-fluoro-4-[[6-methoxy-7-(2-methoxyethoxy)-1,5-naphthyridin-4-yl]oxy]phenyl]-1,2,6-trimethyl-4-oxopyridine-3-carboxamide] was no more than 100 nM.
`COCCOc1cc2nccc(Oc3ccc(NC(=O)c4c(O)c(C5=CCOCC5)c(C)[n+](C)c4C)cc3F)c2nc1OC` [Compound 44, 5-(3,6-Dihydro-2H-pyran-4-yl)-N-[3-fluoro-4-[[6-methoxy-7-(2-methoxyethoxy)-1,5-naphthyridin-4-yl]oxy]phenyl]-1,2,6-trimethyl-4-oxopyridine-3-carboxamide] had an IC50 of no more than 100 nM.
The value for `COc1cc2nccc(Oc3ccc(NC(=O)c4cnc(C)c(C5=CCOCC5)c4O)cc3F)c2nc1OC` [Compound 1-3, 5-(3,6-Dihydro-2H-pyran-4-yl)-N-[4-[(6,7-dimethoxy-1,5-naphthyridin-4-yl)oxy]-3-fluorophenyl]-4-hydroxy-6-methylpyridine-3-carboxamide] was no more than 100 nM; that for `COc1cc2nccc(Oc3ccc(NC(=O)c4cnc(C)c(C5=CCCCC5)c4O)cc3F)c2cc1OC` [Compound 23, 5-(Cyclohexen-1-yl)-N-[4-(6,7-dimethoxyquinolin-4-yl)oxy-3-fluorophenyl]-4-hydroxy-6-methylpyridine-3-carboxamide] was no more than 100 nM.
The value for `COc1cc2nccc(Oc3ccc(NC(=O)c4cn(C)c(C)c(C5=CCCC5)c4=O)cc3F)c2nc1OC` [Compound 1, 5-(Cyclopenten-1-yl)-N-[4-[(6,7-dimethoxy-1,5-naphthyridin-4-yl)oxy]-3-fluorophenyl]-1,6-dimethyl-4-oxopyridine-3-carboxamide] was no more than 100 nM; that for `COc1cc2nccc(Oc3ccc(NC(=O)c4c(C)cc(C)n(C5CCCC5)c4=O)cc3F)c2nc1OC` [Compound 15, 1-Cyclopentyl-N-[4-[(6,7-dimethoxy-1,5-naphthyridin-4-yl)oxy]-3-fluorophenyl]-4,6-dimethyl-2-oxopyridine-3-carboxamide] was no more than 100 nM.
In turn, `COc1cc2nccc(Oc3ccc(NC(=O)c4c(C)nc(C)c(C(N)=O)c4O)cc3F)c2nc1OC` [Compound 84, 3-N-[4-[(6,7-Dimethoxy-1,5-naphthyridin-4-yl)oxy]-3-fluorophenyl]-4-hydroxy-2,6-dimethylpyridine-3,5-dicarboxamide] returned an IC50 greater than 300 nM.
The result for `COCCOc1cc2nccc(Oc3ccc(NC(=O)c4cnc(C)c(C5=CCCC5)c4O)cc3F)c2nc1OC` [Compound 33, 5-(Cyclopenten-1-yl)-N-[3-fluoro-4-[[6-methoxy-7-(2-methoxyethoxy)-1,5-naphthyridin-4-yl]oxy]phenyl]-4-hydroxy-6-methylpyridine-3-carboxamide] reads no more than 100 nM.
